Laboratory results: paper PMC7582776 (Molecules, 2020)

Key:
CYP2C19 [1] = biological target: T1, CYP2C19 (Homo sapiens, UniProt P33261); assay: LC-MS/MS, [S]-mephenytoin, Lineweaver-Burk/Dixon; assay type: biochemical
T1 construct: native enzyme in ultrapooled human liver microsomes

CYP2C19 [2] = biological target: T1, CYP2C19; assay: LC-MS/MS, [S]-mephenytoin (substrate cocktail); assay type: biochemical
CYP2D6 [3] = biological target: T2, CYP2D6 (Homo sapiens, UniProt P10635); assay: LC-MS/MS, bufuralol, Lineweaver-Burk/Dixon; assay type: biochemical
T2 construct: native enzyme in ultrapooled human liver microsomes

OATP1B1 [4] = biological target: T3, OATP1B1 (Homo sapiens, UniProt Q9Y6L6); assay: [3H]estrone-3-sulfate uptake in HEK293-OATP1B1 cells, Lineweaver-Burk; assay type: cell-based
T3 construct: gene SLCO1B1; transiently overexpressed in HEK293 cells (Corning)
T3 sequence (Q9Y6L6 1-691): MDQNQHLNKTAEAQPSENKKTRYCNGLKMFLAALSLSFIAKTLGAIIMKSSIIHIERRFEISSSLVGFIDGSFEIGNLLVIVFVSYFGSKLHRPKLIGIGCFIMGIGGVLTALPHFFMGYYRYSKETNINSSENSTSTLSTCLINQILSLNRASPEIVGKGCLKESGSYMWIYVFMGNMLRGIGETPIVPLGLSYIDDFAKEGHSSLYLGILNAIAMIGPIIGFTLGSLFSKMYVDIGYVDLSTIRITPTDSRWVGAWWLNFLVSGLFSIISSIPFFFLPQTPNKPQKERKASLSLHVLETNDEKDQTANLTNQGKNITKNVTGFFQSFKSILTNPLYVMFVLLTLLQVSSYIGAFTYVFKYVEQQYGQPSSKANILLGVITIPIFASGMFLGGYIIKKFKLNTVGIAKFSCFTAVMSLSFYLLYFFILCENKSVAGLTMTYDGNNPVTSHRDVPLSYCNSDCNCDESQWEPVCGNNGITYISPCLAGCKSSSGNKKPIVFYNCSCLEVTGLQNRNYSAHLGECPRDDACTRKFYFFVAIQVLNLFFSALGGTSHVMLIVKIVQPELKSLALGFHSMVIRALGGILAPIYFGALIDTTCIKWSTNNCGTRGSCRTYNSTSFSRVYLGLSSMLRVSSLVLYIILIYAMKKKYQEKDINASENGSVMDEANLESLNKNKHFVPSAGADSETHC
Excerpt: [3H]estrone-3-sulfate uptake in HEK293-OATP1B1 cells, Lineweaver-Burk on OATP1B1

CYP1A2 = biological target: T4, CYP1A2 (Homo sapiens, UniProt P05177); assay: LC-MS/MS, phenacetin O-de-ethylation (substrate cocktail); assay type: biochemical
T4 construct: native enzyme in ultrapooled human liver microsomes
T4 sequence (P05177 2-516): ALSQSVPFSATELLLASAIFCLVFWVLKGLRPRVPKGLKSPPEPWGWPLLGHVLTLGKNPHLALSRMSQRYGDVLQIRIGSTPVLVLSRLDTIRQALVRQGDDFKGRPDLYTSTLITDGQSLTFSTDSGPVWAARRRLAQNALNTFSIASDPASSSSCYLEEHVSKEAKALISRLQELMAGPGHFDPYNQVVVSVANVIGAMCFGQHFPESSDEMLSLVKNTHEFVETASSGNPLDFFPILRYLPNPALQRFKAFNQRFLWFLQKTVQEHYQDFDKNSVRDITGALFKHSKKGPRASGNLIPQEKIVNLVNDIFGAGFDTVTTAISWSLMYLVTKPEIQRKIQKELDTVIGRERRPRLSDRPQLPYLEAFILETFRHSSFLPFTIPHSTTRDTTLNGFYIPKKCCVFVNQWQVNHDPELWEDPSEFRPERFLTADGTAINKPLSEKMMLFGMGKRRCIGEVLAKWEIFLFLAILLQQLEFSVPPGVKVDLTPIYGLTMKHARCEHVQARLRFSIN
Excerpt: LC-MS/MS, phenacetin O-de-ethylation (substrate cocktail) on CYP1A2

CYP2C8 [5] = biological target: T5, CYP2C8 (Homo sapiens, UniProt P10632); assay: LC-MS/MS, amodiaquine N-de-ethylation (substrate cocktail); assay type: biochemical
T5 construct: native enzyme in ultrapooled human liver microsomes
T5 sequence (P10632 1-490): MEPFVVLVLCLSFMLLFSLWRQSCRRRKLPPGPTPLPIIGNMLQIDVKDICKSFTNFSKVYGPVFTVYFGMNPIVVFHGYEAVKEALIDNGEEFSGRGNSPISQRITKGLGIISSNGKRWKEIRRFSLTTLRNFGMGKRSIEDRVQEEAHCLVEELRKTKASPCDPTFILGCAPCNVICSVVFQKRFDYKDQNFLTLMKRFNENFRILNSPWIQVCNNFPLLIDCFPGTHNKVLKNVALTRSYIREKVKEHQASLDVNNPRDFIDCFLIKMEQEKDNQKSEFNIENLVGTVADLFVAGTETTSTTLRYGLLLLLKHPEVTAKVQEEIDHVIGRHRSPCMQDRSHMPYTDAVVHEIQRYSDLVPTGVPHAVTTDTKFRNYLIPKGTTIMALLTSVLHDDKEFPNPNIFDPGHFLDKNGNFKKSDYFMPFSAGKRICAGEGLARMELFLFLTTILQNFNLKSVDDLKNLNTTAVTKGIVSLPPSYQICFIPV
Excerpt: LC-MS/MS, amodiaquine N-de-ethylation (substrate cocktail) on CYP2C8

CYP2B6 [6] = biological target: T6, CYP2B6 (Homo sapiens, UniProt P20813); assay: LC-MS/MS, bupropion hydroxylation; assay type: biochemical
T6 construct: native enzyme in ultrapooled human liver microsomes
T6 sequence (P20813 1-491): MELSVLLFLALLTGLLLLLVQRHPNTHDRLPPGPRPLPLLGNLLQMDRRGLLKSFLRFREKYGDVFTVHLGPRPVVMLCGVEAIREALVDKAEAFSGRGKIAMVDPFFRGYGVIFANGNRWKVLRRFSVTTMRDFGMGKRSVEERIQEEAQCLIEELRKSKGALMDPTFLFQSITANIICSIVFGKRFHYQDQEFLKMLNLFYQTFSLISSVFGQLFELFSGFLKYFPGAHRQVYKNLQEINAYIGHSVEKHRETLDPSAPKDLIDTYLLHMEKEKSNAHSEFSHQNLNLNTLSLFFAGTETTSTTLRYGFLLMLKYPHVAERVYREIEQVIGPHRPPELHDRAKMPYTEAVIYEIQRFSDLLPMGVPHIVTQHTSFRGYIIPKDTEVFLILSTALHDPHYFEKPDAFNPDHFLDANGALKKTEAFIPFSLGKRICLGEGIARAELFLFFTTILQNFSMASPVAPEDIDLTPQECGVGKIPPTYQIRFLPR
Excerpt: LC-MS/MS, bupropion hydroxylation on CYP2B6

CYP2C9 [7] = biological target: T7, CYP2C9 (Homo sapiens, UniProt P11712); assay: LC-MS/MS, diclofenac (substrate cocktail); assay type: biochemical
T7 construct: native enzyme in ultrapooled human liver microsomes

CYP2B6 [8] = biological target: T6, CYP2B6; assay: LC-MS/MS, bupropion hydroxylation, Lineweaver-Burk/Dixon; assay type: biochemical
Excerpt: LC-MS/MS, bupropion hydroxylation, Lineweaver-Burk/Dixon on CYP2B6

CYP2C9 [9] = biological target: T7, CYP2C9; assay: LC-MS/MS, diclofenac, Lineweaver-Burk/Dixon; assay type: biochemical
OATP1B1 [10] = biological target: T3, OATP1B1; assay: [3H]estrone-3-sulfate uptake in HEK293-OATP1B1 cells; assay type: cell-based
CYP2D6 [11] = biological target: T2, CYP2D6; assay: LC-MS/MS, bufuralol (substrate cocktail); assay type: biochemical
CYP2C8 [12] = biological target: T5, CYP2C8; assay: LC-MS/MS, amodiaquine N-de-ethylation, Lineweaver-Burk/Dixon; assay type: biochemical
Excerpt: LC-MS/MS, amodiaquine N-de-ethylation, Lineweaver-Burk/Dixon on CYP2C8

T1 sequence (P33261 whole entry): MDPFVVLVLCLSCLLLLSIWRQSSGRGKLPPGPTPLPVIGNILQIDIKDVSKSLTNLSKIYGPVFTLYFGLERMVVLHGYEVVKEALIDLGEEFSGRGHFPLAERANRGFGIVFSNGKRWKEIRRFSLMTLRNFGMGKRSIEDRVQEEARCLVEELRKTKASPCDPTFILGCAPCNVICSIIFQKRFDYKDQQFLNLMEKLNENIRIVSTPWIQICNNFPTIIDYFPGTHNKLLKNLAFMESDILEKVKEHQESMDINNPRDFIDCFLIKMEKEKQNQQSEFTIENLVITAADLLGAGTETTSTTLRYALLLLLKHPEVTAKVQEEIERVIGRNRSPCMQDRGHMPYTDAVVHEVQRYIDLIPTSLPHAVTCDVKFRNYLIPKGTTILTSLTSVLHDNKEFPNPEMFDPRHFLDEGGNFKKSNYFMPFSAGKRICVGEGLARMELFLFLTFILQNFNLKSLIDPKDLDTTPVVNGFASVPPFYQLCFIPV
T2 sequence (P10635 whole entry): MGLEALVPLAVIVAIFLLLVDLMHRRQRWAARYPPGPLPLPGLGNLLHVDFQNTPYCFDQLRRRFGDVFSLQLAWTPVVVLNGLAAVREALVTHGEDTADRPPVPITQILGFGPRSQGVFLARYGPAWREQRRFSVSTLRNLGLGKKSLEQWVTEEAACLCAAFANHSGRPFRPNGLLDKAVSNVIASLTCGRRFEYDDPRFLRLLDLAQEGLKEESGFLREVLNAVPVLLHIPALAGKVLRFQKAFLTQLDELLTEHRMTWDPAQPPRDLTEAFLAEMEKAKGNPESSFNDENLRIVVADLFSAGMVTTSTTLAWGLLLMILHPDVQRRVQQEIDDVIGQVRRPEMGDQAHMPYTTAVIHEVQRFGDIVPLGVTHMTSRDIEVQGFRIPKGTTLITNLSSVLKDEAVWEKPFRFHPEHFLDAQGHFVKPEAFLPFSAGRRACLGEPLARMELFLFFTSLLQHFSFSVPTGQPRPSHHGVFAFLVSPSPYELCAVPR
T7 sequence (P11712 whole entry): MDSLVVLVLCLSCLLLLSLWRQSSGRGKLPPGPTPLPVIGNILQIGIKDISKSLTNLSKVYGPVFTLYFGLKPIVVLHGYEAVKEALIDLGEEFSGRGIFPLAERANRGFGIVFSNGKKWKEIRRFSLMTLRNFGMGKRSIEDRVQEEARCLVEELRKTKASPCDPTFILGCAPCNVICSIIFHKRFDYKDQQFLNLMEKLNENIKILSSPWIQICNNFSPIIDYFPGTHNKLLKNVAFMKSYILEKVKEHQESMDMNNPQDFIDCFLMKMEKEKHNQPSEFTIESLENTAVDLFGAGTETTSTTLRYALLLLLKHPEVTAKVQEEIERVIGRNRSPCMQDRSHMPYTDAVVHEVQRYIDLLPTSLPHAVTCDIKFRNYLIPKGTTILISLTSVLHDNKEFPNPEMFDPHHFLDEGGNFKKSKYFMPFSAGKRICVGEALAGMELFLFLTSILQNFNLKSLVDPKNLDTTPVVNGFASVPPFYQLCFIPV

CC(C)[C@H](NC(=O)c1nn(Cc2ccc(F)cc2)c2ccccc12)C(N)=O [AB-FUBINACA, N-[(1S)-1-(aminocarbonyl)-2-methylpropyl]-1-[(4-fluorophenyl)methyl]-1H-indazole-3-carboxamide]
Ki (CYP2C19 [1]): 6.3 µM
IC50 (CYP2C19 [2]): 19.7 µM
Ki (CYP2D6 [3]): 20.8 µM
Ki (OATP1B1 [4]): 94.4 µM
IC50 (CYP1A2): > 100 µM
IC50 (CYP2C8 [5]): 44.3 µM
IC50 (CYP2B6 [6]): 29.9 µM
IC50 (CYP2C9 [7]): 13.5 µM
Ki (CYP2B6 [8]): 15 µM
Ki (CYP2C9 [9]): 13.1 µM
IC50 (OATP1B1 [10]): 85.6 µM
IC50 (CYP2D6 [11]): 40.4 µM
Ki (CYP2C8 [12]): 19.9 µM
